From paper PMC10838953

How the values were obtained:
CDK9 = CDK9 (Homo sapiens, UniProt P50750); experiment: biochemical; settings: read-out: %Ctrl @ 2000nM
RET(V804L) = RET(V804L) (Homo sapiens, UniProt P07949, V804L); experiment: biochemical; settings: read-out: %Ctrl @ 2000nM
FLT3 = FLT3 (Homo sapiens, UniProt P36888); experiment: biochemical; settings: read-out: %Ctrl @ 2000nM
TRKA = TRKA (Homo sapiens, UniProt P04629); experiment: biochemical; settings: read-out: %Ctrl @ 2000nM
ACVR2A = ACVR2A (Homo sapiens, UniProt P27037); experiment: biochemical; settings: read-out: %Ctrl @ 2000nM
AKT2 = AKT2 (Homo sapiens, UniProt P31751); experiment: biochemical; settings: read-out: %Ctrl @ 2000nM
RIPK1 = RIPK1 (Homo sapiens, UniProt Q13546); experiment: biochemical; settings: read-out: %Ctrl @ 2000nM
TEC = TEC (Homo sapiens, UniProt P42680); experiment: biochemical; settings: read-out: %Ctrl @ 2000nM
LATS1 = LATS1 (Homo sapiens, UniProt O95835); experiment: biochemical; settings: read-out: %Ctrl @ 2000nM
PIK3CA(Q546K) = PIK3CA(Q546K) (Homo sapiens, UniProt P42336, Q546K); experiment: biochemical; settings: read-out: %Ctrl @ 2000nM
ADCK3 = ADCK3 (Homo sapiens, UniProt Q8NI60); experiment: biochemical; settings: read-out: %Ctrl @ 2000nM
EGFR = EGFR (Homo sapiens, UniProt P00533); experiment: biochemical; settings: read-out: %Ctrl @ 2000nM
AURKA = AURKA (Homo sapiens, UniProt O14965); experiment: biochemical; settings: read-out: %Ctrl @ 2000nM
[1] = system: 786-O, A549, MDA-MB-231, OVCAR-3, U373 MG
[2] = target: TYK2(JH1domain-catalytic) (Homo sapiens, UniProt P29597); experiment: biochemical; settings: read-out: %Ctrl @ 2000nM
EPHB6 = EPHB6 (Homo sapiens, UniProt O15197); experiment: biochemical; settings: read-out: %Ctrl @ 2000nM
PRKCQ = PRKCQ (Homo sapiens, UniProt Q04759); experiment: biochemical; settings: read-out: %Ctrl @ 2000nM
TIE2 = TIE2 (Homo sapiens, UniProt Q02763); experiment: biochemical; settings: read-out: %Ctrl @ 2000nM
ACVR1 = ACVR1 (Homo sapiens, UniProt Q04771); experiment: biochemical; settings: read-out: %Ctrl @ 2000nM
GRK3 = GRK3 (Homo sapiens, UniProt P35626); experiment: biochemical; settings: read-out: %Ctrl @ 2000nM
NEK5 = NEK5 (Homo sapiens, UniProt Q6P3R8); experiment: biochemical; settings: read-out: %Ctrl @ 2000nM
DDR1 = DDR1 (Homo sapiens, UniProt Q08345); experiment: biochemical; settings: read-out: %Ctrl @ 2000nM
PRP4 = PRP4 (Homo sapiens, UniProt Q13523); experiment: biochemical; settings: read-out: %Ctrl @ 2000nM
[3] = target: JAK1(JH1domain-catalytic) (Homo sapiens, UniProt P23458); experiment: biochemical; settings: read-out: %Ctrl @ 2000nM
TNK1 = TNK1 (Homo sapiens, UniProt Q13470); experiment: biochemical; settings: read-out: %Ctrl @ 2000nM
PIK4CB = PIK4CB (Homo sapiens, UniProt Q9UBF8); experiment: biochemical; settings: read-out: %Ctrl @ 2000nM
[4] = target: EGFR(L747-E749del, A750P) (Homo sapiens, UniProt P00533, A750P/DEL747-749); experiment: biochemical; settings: read-out: %Ctrl @ 2000nM
LKB1 = LKB1 (Homo sapiens, UniProt Q15831); experiment: biochemical; settings: read-out: %Ctrl @ 2000nM
PRKCE = PRKCE (Homo sapiens, UniProt Q02156); experiment: biochemical; settings: read-out: %Ctrl @ 2000nM
IKK-epsilon = IKK-epsilon (Homo sapiens, UniProt Q14164); experiment: biochemical; settings: read-out: %Ctrl @ 2000nM
NEK3 = NEK3 (Homo sapiens, UniProt P51956); experiment: biochemical; settings: read-out: %Ctrl @ 2000nM
STK39 = STK39 (Homo sapiens, UniProt Q9UEW8); experiment: biochemical; settings: read-out: %Ctrl @ 2000nM
STK33 = STK33 (Homo sapiens, UniProt Q9BYT3); experiment: biochemical; settings: read-out: %Ctrl @ 2000nM
p38 MAPK (T180/Y182) = settings: HEK293 cells; 48 h
STK36 = STK36 (Homo sapiens, UniProt Q9NRP7); experiment: biochemical; settings: read-out: %Ctrl @ 2000nM
CAMK1B = CAMK1B (Homo sapiens, UniProt Q6P2M8); experiment: biochemical; settings: read-out: %Ctrl @ 2000nM
CSNK1G3 = CSNK1G3 (Homo sapiens, UniProt Q9Y6M4); experiment: biochemical; settings: read-out: %Ctrl @ 2000nM
ACVRL1 = ACVRL1 (Homo sapiens, UniProt P37023); experiment: biochemical; settings: read-out: %Ctrl @ 2000nM
NEK2 = NEK2 (Homo sapiens, UniProt P51955); experiment: biochemical; settings: read-out: %Ctrl @ 2000nM
EGFR(E746-A750del) = EGFR(E746-A750del) (Homo sapiens, UniProt P00533, DEL746-750); experiment: biochemical; settings: read-out: %Ctrl @ 2000nM
PRKD2 = PRKD2 (Homo sapiens, UniProt Q9BZL6); experiment: biochemical; settings: read-out: %Ctrl @ 2000nM
ERBB3 = ERBB3 (Homo sapiens, UniProt P21860); experiment: biochemical; settings: read-out: %Ctrl @ 2000nM

Chain of NEK5 (Q6P3R8 whole entry): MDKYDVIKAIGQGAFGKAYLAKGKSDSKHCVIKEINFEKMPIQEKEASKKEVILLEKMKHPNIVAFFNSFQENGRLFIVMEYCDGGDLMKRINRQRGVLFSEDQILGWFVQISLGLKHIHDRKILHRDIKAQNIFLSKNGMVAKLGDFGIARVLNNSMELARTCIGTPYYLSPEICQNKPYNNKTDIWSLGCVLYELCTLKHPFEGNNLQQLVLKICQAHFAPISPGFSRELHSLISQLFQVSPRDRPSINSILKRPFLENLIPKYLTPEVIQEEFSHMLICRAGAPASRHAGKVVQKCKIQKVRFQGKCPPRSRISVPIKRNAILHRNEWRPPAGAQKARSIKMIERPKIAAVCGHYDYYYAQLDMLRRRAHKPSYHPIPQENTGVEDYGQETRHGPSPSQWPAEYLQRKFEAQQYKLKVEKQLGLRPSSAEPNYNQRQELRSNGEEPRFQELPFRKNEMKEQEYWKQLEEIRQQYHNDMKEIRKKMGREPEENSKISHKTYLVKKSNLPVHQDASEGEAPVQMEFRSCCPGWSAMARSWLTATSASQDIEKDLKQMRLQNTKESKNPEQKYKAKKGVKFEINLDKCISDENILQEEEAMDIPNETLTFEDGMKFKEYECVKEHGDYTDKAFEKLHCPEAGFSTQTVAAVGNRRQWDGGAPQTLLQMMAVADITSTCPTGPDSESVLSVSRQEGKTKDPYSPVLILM
Chain of ACVR1 (Q04771 21-509): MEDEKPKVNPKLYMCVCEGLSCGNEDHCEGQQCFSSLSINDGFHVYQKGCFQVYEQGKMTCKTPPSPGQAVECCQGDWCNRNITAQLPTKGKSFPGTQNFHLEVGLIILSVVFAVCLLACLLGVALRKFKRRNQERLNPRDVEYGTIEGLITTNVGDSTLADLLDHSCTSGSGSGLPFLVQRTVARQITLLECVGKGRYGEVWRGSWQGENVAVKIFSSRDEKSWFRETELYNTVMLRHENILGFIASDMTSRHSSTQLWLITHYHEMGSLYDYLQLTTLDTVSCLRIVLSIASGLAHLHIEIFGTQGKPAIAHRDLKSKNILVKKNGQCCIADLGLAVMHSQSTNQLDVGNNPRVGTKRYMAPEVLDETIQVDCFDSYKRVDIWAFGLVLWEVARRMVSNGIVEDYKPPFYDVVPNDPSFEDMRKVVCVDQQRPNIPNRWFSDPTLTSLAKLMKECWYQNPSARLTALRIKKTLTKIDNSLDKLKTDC
Chain of PIK3CA(Q546K) (P42336 whole entry Q546K): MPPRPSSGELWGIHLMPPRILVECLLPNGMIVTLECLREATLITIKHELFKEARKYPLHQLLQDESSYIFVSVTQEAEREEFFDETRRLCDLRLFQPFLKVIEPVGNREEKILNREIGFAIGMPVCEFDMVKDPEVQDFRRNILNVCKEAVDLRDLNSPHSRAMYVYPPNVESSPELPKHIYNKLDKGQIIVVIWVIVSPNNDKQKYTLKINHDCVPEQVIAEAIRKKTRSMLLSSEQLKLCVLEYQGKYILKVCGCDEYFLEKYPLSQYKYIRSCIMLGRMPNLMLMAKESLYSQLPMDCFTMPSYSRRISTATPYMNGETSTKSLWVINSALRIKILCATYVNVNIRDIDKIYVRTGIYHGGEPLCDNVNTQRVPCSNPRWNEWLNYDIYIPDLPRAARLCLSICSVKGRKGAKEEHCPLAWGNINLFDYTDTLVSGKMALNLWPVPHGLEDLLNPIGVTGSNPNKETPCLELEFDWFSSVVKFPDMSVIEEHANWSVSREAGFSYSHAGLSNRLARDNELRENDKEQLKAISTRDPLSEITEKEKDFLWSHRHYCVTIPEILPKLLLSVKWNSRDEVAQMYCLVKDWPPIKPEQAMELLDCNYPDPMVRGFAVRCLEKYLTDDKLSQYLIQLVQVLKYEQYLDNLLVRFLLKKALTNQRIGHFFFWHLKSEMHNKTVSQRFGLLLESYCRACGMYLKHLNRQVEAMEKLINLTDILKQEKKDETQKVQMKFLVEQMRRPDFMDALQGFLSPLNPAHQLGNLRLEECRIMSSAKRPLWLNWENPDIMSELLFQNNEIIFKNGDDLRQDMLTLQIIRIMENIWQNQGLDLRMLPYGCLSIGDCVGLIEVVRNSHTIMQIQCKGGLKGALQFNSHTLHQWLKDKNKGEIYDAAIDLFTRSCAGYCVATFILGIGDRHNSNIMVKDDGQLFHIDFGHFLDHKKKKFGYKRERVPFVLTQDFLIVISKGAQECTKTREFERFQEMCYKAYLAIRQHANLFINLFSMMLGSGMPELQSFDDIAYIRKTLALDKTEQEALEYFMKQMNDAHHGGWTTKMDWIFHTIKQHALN
Chain of JAK1(JH1domain-catalytic) (P23458 854-1154 limits assumed): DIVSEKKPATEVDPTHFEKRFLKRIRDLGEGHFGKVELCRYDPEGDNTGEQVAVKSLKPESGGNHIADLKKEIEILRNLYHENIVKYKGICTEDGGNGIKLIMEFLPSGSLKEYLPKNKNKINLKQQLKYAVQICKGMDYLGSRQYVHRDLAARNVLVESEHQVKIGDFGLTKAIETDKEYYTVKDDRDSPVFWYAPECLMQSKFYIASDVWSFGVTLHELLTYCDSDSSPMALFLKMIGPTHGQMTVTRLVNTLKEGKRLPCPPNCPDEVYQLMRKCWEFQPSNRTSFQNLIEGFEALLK
Chain of TEC (P42680 whole entry): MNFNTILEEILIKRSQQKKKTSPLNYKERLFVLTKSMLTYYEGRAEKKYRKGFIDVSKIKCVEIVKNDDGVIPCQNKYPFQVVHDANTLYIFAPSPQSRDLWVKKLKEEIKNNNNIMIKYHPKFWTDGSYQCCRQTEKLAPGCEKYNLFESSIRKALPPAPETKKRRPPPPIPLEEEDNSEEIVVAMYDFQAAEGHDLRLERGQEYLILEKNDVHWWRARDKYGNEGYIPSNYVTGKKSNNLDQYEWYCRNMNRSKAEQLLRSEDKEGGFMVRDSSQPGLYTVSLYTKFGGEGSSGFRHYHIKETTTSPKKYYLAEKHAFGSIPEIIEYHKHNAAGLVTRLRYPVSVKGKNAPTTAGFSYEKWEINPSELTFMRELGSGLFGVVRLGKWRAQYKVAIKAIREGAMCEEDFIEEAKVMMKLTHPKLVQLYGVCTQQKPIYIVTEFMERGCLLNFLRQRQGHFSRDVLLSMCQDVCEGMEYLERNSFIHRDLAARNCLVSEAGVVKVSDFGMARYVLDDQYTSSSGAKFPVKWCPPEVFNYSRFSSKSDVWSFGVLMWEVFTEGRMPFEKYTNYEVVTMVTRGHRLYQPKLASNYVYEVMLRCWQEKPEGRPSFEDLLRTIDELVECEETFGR
Chain of CDK9 (P50750 whole entry): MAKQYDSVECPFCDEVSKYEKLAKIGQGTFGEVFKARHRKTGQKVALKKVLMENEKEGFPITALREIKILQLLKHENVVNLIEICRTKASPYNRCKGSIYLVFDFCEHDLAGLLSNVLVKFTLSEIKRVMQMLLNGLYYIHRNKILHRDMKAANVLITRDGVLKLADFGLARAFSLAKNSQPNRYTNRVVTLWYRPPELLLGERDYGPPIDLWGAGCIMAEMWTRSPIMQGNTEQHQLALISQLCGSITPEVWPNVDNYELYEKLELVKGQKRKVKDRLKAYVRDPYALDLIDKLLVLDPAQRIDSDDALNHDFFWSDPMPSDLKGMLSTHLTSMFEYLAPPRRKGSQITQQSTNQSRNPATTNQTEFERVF
Chain of ACVRL1 (P37023 22-503): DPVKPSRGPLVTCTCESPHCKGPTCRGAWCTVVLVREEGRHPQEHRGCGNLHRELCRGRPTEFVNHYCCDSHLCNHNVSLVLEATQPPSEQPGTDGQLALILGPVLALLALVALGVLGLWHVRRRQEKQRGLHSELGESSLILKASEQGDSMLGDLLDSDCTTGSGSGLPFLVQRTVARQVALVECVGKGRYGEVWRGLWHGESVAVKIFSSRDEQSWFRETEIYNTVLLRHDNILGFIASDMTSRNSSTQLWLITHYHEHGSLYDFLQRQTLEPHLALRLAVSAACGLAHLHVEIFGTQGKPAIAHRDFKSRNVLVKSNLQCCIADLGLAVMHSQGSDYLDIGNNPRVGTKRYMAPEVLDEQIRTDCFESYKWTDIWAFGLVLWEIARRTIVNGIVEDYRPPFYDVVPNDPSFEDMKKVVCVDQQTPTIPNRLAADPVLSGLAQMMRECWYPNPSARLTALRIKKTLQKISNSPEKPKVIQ
Chain of TNK1 (Q13470 whole entry): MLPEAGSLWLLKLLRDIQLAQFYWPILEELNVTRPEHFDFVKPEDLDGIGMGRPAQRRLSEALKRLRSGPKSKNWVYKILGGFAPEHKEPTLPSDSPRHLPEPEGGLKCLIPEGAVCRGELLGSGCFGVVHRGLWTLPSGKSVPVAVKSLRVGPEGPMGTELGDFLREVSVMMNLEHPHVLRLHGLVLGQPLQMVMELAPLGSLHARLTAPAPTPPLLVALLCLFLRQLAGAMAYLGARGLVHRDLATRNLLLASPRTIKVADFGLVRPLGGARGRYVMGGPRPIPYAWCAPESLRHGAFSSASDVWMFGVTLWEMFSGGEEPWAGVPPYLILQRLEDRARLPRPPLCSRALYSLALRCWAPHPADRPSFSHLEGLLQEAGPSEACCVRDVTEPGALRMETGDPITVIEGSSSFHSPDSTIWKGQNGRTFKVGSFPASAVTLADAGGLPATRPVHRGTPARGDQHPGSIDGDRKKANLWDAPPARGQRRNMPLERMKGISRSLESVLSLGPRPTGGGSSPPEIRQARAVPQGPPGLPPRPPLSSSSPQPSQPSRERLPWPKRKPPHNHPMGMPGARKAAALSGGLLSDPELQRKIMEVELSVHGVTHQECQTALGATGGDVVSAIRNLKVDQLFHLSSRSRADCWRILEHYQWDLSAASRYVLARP
Chain of TYK2(JH1domain-catalytic) (P29597 897-1176 limits assumed): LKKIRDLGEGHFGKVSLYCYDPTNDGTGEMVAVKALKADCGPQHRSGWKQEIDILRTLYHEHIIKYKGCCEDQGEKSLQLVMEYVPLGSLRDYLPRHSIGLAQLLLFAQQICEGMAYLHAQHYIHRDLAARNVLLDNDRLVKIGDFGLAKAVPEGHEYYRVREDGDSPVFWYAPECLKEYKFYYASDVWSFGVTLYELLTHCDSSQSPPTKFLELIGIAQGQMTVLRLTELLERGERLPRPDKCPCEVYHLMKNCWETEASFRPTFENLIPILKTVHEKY

CC(C)COC(=O)c1[nH]c2ccc(F)cc2c1-c1cn(CC2CCN(CCNS(=O)(=O)c3ccc(CC(C)C)cc3)CC2)nn1 [AB668, isobutyl 5-fluoro-3-(1-((1-(2-((4-isobutylphenyl)sulfonamido)ethyl)piperidin-4-yl)methyl)-1H-1,2,3-triazol-4-yl)-1H-indole-2-carboxylate]
remaining activity at 2 µM (CDK9): 93%
remaining activity at 2 µM (RET(V804L)): 93%
remaining activity at 2 µM (FLT3): 87%
remaining activity at 2 µM (TRKA): 96%
remaining activity at 2 µM (ACVR2A): 95%
remaining activity at 2 µM (AKT2): 97%
remaining activity at 2 µM (RIPK1): 96%
remaining activity at 2 µM (TEC): 95%
remaining activity at 2 µM (LATS1): 100%
remaining activity at 2 µM (PIK3CA(Q546K)): 100%
remaining activity at 2 µM (ADCK3): 86%
remaining activity at 2 µM (EGFR): 92%
remaining activity at 2 µM (AURKA): 100%
cell death in various cancer cells [1]: broad effect on cell death
remaining activity at 2 µM [2]: 85%
remaining activity at 2 µM (EPHB6): 82%
remaining activity at 2 µM (PRKCQ): 87%
remaining activity at 2 µM (TIE2): 83%
remaining activity at 2 µM (ACVR1): 100%
remaining activity at 2 µM (GRK3): 89%
remaining activity at 2 µM (NEK5): 84%
remaining activity at 2 µM (DDR1): 96%
remaining activity at 2 µM (PRP4): 95%
remaining activity at 2 µM [3]: 75%
remaining activity at 2 µM (TNK1): 96%
remaining activity at 2 µM (PIK4CB): 75%
remaining activity at 2 µM [4]: 90%
remaining activity at 2 µM (LKB1): 89%
remaining activity at 2 µM (PRKCE): 98%
remaining activity at 2 µM (IKK-epsilon): 76%
remaining activity at 2 µM (NEK3): 71%
remaining activity at 2 µM (STK39): 90%
remaining activity at 2 µM (STK33): 67%
p38 activation (p38 MAPK (T180/Y182)): activated in both cell types
remaining activity at 2 µM (STK36): 100%
remaining activity at 2 µM (CAMK1B): 100%
remaining activity at 2 µM (CSNK1G3): 67%
remaining activity at 2 µM (ACVRL1): 90%
remaining activity at 2 µM (NEK2): 90%
remaining activity at 2 µM (EGFR(E746-A750del)): 88%
remaining activity at 2 µM (PRKD2): 88%
remaining activity at 2 µM (ERBB3): 94%
